The record followed here is patent publication US11236084B2, “Substituted azaindoline derivatives as NIK inhibitors” (Janssen Pharmaceutica NV, priority 2017, dated 2022).

SMILES strings stand for the structures. Where two headings read alike, the source gives them in different places.

The assay deals with recombinant human NF-kappaB-inducing kinase (NIK/MAP3K14) (Homo sapiens, UniProt Q99558). Kind of assay: Biological Assay B: inhibition of auto-phosphorylation of recombinant human NIK/MAP3K14 (AlphaScreen), performed at 2 locations. Format: biochemical. The settings on record: AlphaScreen auto-phosphorylation, averaged values. Here is the method: Inhibition of Auto-Phosphorylation of Recombinant Human NF-kappaB-Inducing Kinase (NIK/MAP3K14) Activity (AlphaScreen®)
Sequence of recombinant human NF-kappaB-inducing kinase (NIK/MAP3K14) (Q99558 whole entry): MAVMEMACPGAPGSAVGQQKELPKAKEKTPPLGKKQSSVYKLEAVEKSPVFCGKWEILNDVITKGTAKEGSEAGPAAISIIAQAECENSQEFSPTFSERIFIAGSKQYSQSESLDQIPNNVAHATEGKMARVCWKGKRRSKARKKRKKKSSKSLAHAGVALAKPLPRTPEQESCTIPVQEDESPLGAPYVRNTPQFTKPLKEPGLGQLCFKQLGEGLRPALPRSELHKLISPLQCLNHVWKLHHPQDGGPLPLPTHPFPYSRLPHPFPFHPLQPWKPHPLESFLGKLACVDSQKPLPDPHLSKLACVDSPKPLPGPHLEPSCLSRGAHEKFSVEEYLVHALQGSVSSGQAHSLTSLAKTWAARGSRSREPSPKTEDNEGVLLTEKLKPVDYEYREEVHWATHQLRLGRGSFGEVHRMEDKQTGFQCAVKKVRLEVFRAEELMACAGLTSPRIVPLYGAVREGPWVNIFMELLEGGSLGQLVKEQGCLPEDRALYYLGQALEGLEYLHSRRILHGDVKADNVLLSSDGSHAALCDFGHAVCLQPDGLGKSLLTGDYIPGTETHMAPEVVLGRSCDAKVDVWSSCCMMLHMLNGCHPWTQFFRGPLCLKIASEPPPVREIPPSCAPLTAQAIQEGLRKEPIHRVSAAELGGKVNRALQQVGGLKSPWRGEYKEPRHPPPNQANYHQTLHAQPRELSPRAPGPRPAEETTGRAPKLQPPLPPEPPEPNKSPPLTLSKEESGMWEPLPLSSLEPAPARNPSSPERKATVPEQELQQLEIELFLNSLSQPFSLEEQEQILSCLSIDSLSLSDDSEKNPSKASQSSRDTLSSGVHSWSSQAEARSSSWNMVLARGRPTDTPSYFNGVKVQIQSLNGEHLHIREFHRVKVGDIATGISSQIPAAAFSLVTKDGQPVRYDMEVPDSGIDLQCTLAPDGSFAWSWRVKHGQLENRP
NIK/MAP3K14 auto-phosphorylation activity was measured using the AlphaScreen® (αscreen) format (Perkin Elmer). All compounds tested were dissolved in dimethyl sulfoxide (DMSO) and further dilutions were made in assay buffer. Final DMSO concentration was 1% (v/v) in assays. Assay buffer was 50 mM Tris pH 7.5 containing 1 mM EGTA (ethylene glycol tetraacetic acid), 1 mM DTT (dithiothreitol), 0.1 mM Na3VO4, 5 mM MgCl2, 0.01% Tween® 20. Assays were carried out in 384 well Alphaplates (Perkin Elmer). Incubations consisted of compound, 25 microM Adenosine-5′-triphosphate (ATP), and 0.2 nM NIK/MAP3K14. Incubations were initiated by addition of GST-tagged NIK/MAP3K14 enzyme, carried out for 1 h at 25° C. and terminated by addition of stop buffer containing anti-phospho-IKK Ser176/180 antibody. Protein A Acceptor and Glutathione-Donor beads were added before reading using an EnVision® Multilabel Plate Reader (Perkin Elmer). Signal obtained in the wells containing blank samples was subtracted from all other wells and IC50's were determined by fitting a sigmoidal curve to % inhibition of control versus Log10 compound concentration.
Assay B was performed at 2 different locations.
Data for the compounds of the invention in the above assays are provided in Table A (the values in Table are averaged values over all measurements on all batches of a compound; values as IC50 (nM)). (‘n.c.’ means not calculated: ‘Co.’ means compound)

Where [1] appears, read: location 2, read-out: Assay B location 2 IC50.
[2] abbreviates: location 1, read-out: Assay B location 1 IC50.

`CCc1ccc(OC)c(Nc2nccc(-c3cnc4c(c3)C(C)(CO)CN4)n2)c1` (stereo not drawn) [Compound 206]: the half-maximal inhibitory concentration (IC50) under setting [1] turned out to be 38 nM.

As to `COc1cc(-n2cncn2)ccc1Nc1nccc(-c2cnc3c(c2)C(C)(CO)CN3)n1` (stereo not drawn) [Compound 207], the concentration for half-maximal inhibition (IC50) under setting [1] came to 16.6 nM.

Turning to `Cc1ccc(C#N)cc1Nc1nccc(-c2cnc3c(c2)C(C)(CO)CN3)n1` (stereo not drawn) [Compound 208], the IC50 under setting [1] stood at 5 nM.

As to `COc1ccc(C(C)C)cc1Nc1nccc(-c2cnc3c(c2)C(C)(CO)CN3)n1` (stereo not drawn) [Compound 209], under setting [1], the IC50 stood at 110 nM.

Consider `Cc1ccc(OC(F)(F)F)cc1Nc1nccc(-c2cnc3c(c2)C(C)(CO)CN3)n1` (stereo not drawn) [Compound 210], for which the 50% inhibitory concentration (IC50) under setting [1] was 30.9 nM.

For the molecule `CC(=O)Nc1ccc(C)c(Nc2nccc(-c3cnc4c(c3)C(C)(CO)CN4)n2)c1` (stereo not drawn) [Compound 211], the IC50 under setting [1] came out at 49 nM.

Take `Cc1cccc(Nc2nccc(-c3cnc4c(c3)C(C)(CO)CN4)n2)c1C` (stereo not drawn) [Compound 212]: the 50% inhibitory concentration (IC50) under setting [1] came to 22.4 nM.

As for `COc1cc(N2CCC(OC)CC2)ccc1Nc1nccc(-c2cnc3c(c2)C(C)(CO)CN3)n1` (stereo not drawn) [Compound 213], the IC50 under setting [1] amounted to 13.8 nM.

With `COc1cccc(Nc2nccc(-c3cnc4c(c3)C(C)(CO)CN4)n2)c1C` (stereo not drawn) [Compound 214], the half-inhibitory concentration (IC50) under setting [1] was 12 nM.

Consider `COc1cc(N2CCC(C#N)CC2)ccc1Nc1nccc(-c2cnc3c(c2)C(C)(CO)CN3)n1` (stereo not drawn) [Compound 215], for which the half-inhibitory concentration (IC50) under setting [1] is 12.9 nM.

With `Cc1cc(N2CCOCC2)ccc1Nc1nccc(-c2cnc3c(c2)C(C)(CO)CN3)n1` (stereo not drawn) [Compound 216], the half-maximal inhibitory concentration (IC50) under setting [1] is 47.9 nM.

As for `COc1cc(N2CCC(F)(F)CC2)ccc1Nc1nccc(-c2cnc3c(c2)C(C)(CO)CN3)n1` (stereo not drawn) [Compound 217], under setting [1], the half-maximal inhibitory concentration (IC50) came out at 27.5 nM.

For `COc1cc(OCCN2CCOCC2)ccc1Nc1nccc(-c2cnc3c(c2)C(C)(CO)CN3)n1` (stereo not drawn) [Compound 218], under setting [1], the IC50 came out at 15.1 nM.

As to `CNC(=O)c1ccc(C)c(Nc2nccc(-c3cnc4c(c3)C(C)(CO)CN4)n2)c1` (stereo not drawn) [Compound 219], under setting [1], the IC50 came out at 61.7 nM.

Take `COc1ccc(C)c(Nc2nccc(-c3cnc4c(c3)C(C)(CO)CN4)n2)c1` (stereo not drawn) [Compound 220]: the 50% inhibitory concentration (IC50) under setting [1] stood at 2.5 nM.

With `COc1ccc(NC(C)=O)cc1Nc1nccc(-c2cnc3c(c2)C(C)(CO)CN3)n1` (stereo not drawn) [Compound 221], the IC50 under setting [1] was found to be 10.5 nM.

Take `COc1ccc(Cl)c(Nc2nccc(-c3cnc4c(c3)C(C)(CO)CN4)n2)c1` (stereo not drawn) [Compound 222]: the IC50 under setting [1] is 2.6 nM.

As for `Cc1c(C#N)cccc1Nc1nccc(-c2cnc3c(c2)C(C)(CO)CN3)n1` (stereo not drawn) [Compound 223], the IC50 under setting [1] stood at 63.1 nM.

Regarding `Cc1c(Cl)cccc1Nc1nccc(-c2cnc3c(c2)C(C)(CO)CN3)n1` (stereo not drawn) [Compound 224], the IC50 under setting [1] was 38 nM.

`COc1cccc(Nc2nccc(-c3cnc4c(c3)C(C)(CO)CN4)n2)c1Cl` (stereo not drawn) [Compound 225]: the IC50 by setting is: under setting [2], 13.2 nM; under setting [1], 10.2 nM.

In the case of `COc1cc(C#N)c(C)c(Nc2nccc(-c3cnc4c(c3)C(C)(CO)CN4)n2)c1` (stereo not drawn) [Compound 226], the IC50 by setting is: under setting [2], 7.4 nM; under setting [1], 4.1 nM.

Take `CC1(CO)CNc2ncc(-c3ccnc(Nc4cccc(Cl)c4Cl)n3)cc21` (stereo not drawn) [Compound 227]: the IC50 was found to be 72.4 nM under setting [2] and 41.7 nM under setting [1].

As to `COc1cc(OC2CCN(C)CC2)ccc1Nc1nccc(-c2cnc3c(c2)C(C)(CO)CN3)n1` (stereo not drawn) [Compound 228], the IC50 under setting [1] came to 26.3 nM.

As for `COc1cc(OC2CCN(C)C2)ccc1Nc1nccc(-c2cnc3c(c2)C(C)(CO)CN3)n1` (stereo not drawn) [Compound 229], the IC50 by setting is: under setting [2], 45.7 nM; under setting [1], 37.2 nM.

For the molecule `COc1cc(Cl)c(C)c(Nc2nccc(-c3cnc4c(c3)C(C)(CO)CN4)n2)c1` (stereo not drawn) [Compound 230], the half-inhibitory concentration (IC50) worked out at 7.4 nM under setting [2] and 6.6 nM under setting [1].

Consider `CCN1CCC(Oc2ccc(Nc3nccc(-c4cnc5c(c4)C(C)(CO)CN5)n3)c(OC)c2)C1` (stereo not drawn) [Compound 233], for which the 50% inhibitory concentration (IC50) under setting [2] was found to be 32.4 nM and the IC50 under setting [1] was determined as 33.1 nM.

With `[2H]C([2H])([2H])c1ccccc1Nc1nccc(-c2cnc3c(c2)C(C)(CO)CN3)n1` (stereo not drawn) [Compound 234], the IC50 worked out at 61.7 nM under setting [2] and 38.9 nM under setting [1].

In the case of `COc1ccc(N2CCN(C)CC2)cc1Nc1nccc(-c2cnc3c(c2)C(C)(CO)CN3)n1` (stereo not drawn) [Compound 238], the IC50 reads like this: under setting [2], ~6610 nM; under setting [1], > 10000 nM.

In the case of `COc1ccc(-c2cnn(C)c2)cc1Nc1nccc(-c2cnc3c(c2)C(C)(CO)CN3)n1` (stereo not drawn) [Compound 239], the IC50 came out at 389 nM under setting [2] and 355 nM under setting [1].

On to `COc1ccc(N2CCOCC2)cc1Nc1nccc(-c2cnc3c(c2)C(C)(CO)CN3)n1` (stereo not drawn) [Compound 241], for which the concentration for half-maximal inhibition (IC50) is 1860 nM under setting [2] and ~3090 nM under setting [1].

For `COc1cc(N2CC3(CCOCC3)C2)ccc1Nc1nccc(-c2cnc3c(c2)C(C)(CO)CN3)n1` (stereo not drawn) [Compound 242], the 50% inhibitory concentration (IC50) stood at 35.5 nM under setting [2] and 13.8 nM under setting [1].

On to `COc1cc(N2CCOCC2)c(F)cc1Nc1nccc(-c2cnc3c(c2)C(C)(CO)CN3)n1` (stereo not drawn) [Compound 243], for which, under setting [1], the IC50 was 10 nM.

As to `COc1cc(N2CCC(C#N)CC2)c(Cl)cc1Nc1nccc(-c2cnc3c(c2)C(C)(CO)CN3)n1` (stereo not drawn) [Compound 245], the IC50 under setting [1] stood at 3.6 nM.

Regarding `CC1(CO)CNc2ncc(-c3ccnc(Nc4ccccc4OC4CCOCC4)n3)cc21` (stereo not drawn) [Compound 247], the concentration for half-maximal inhibition (IC50) by setting is: under setting [2], 38 nM; under setting [1], 22.4 nM.

As to `COc1cccc(F)c1Nc1nccc(-c2cnc3c(c2)C(C)(CO)CN3)n1` (stereo not drawn) [Compound 250], the IC50 came out at 912 nM under setting [2] and 1230 nM under setting [1].

Regarding `COc1cccc(Cl)c1Nc1nccc(-c2cnc3c(c2)C(C)(CO)CN3)n1` (stereo not drawn) [Compound 251], the IC50 under setting [2] is > 10000 nM and the half-maximal inhibitory concentration (IC50) under setting [1] turned out to be 6760 nM.

Turning to `COCCCN(C)c1cc(OC)c(Nc2nccc(-c3cnc4c(c3)C(C)(CO)CN4)n2)cc1Cl` (stereo not drawn) [Compound 252], the IC50 under setting [1] came to 7.4 nM.

On to `CCN1CCN(c2cc(OC)c(Nc3nccc(-c4cnc5c(c4)C(C)(CO)CN5)n3)cc2Cl)CC1` (stereo not drawn) [Compound 268], for which the IC50 was 4.5 nM under setting [2] and 0.7 nM under setting [1].

As to `COc1cc(N2CC(OC)C2)c(F)cc1Nc1nccc(-c2cnc3c(c2)C(C)(CO)CN3)n1` (stereo not drawn) [Compound 270], the 50% inhibitory concentration (IC50) under setting [2] was 21.4 nM and the half-inhibitory concentration (IC50) under setting [1] came out at 5.8 nM.

`COc1cc(N2CCN(C)CC2)c(F)cc1Nc1nccc(-c2cnc3c(c2)C(C)(CO)CN3)n1` (stereo not drawn) [Compound 271]: the IC50 stood at 10.2 nM under setting [2] and 2.6 nM under setting [1].

For the molecule `CCN1CCN(c2cc(OC)c(Nc3nccc(-c4cnc5c(c4)C(C)(CO)CN5)n3)cc2F)CC1` (stereo not drawn) [Compound 275], the IC50 reads like this: under setting [2], 4 nM; under setting [1], 2.6 nM.

Regarding `COc1cc(N2CCC(N(C)C)C2)c(Cl)cc1Nc1nccc(-c2cnc3c(c2)C(C)(CO)CN3)n1` (stereo not drawn) [Compound 278], the IC50 turned out to be 4.7 nM under setting [2] and 1 nM under setting [1].

For `CCN1CCN(c2cc(OC)c(Nc3nccc(-c4cnc5c(c4)C(C)(CO)CN5)n3)cc2C#N)CC1` (stereo not drawn) [Compound 279], under setting [1], the 50% inhibitory concentration (IC50) came to 2.7 nM.

For the molecule `COc1cc(N2CCN(C)CC2)c(C#N)cc1Nc1nccc(-c2cnc3c(c2)C(C)(CO)CN3)n1` (stereo not drawn) [Compound 280], the half-maximal inhibitory concentration (IC50) reads like this: under setting [2], 6.9 nM; under setting [1], 2.5 nM.

Take `Cc1cc(N2CC3(CCOCC3)C2)c(F)cc1Nc1nccc(-c2cnc3c(c2)C(C)(CO)CN3)n1` (stereo not drawn) [Compound 281]: the 50% inhibitory concentration (IC50) was determined as 15.9 nM under setting [2] and 3 nM under setting [1].

Turning to `COc1cc(N2CCOCC2)c(F)cc1Nc1nccc(-c2cnc3c(c2)C(C)(C)CN3)n1` [Compound 282], the IC50 amounted to 77.6 nM under setting [2] and 13.8 nM under setting [1].

As for `COc1cc(OC2CCN(C)CC2)c(F)cc1Nc1nccc(-c2cnc3c(c2)C(C)(CO)CN3)n1` (stereo not drawn) [Compound 283], the IC50 is, setting by setting: under setting [2], 5.3 nM; under setting [1], 2.8 nM.

Consider `COc1cc(N2CC3(CCOC3)C2)c(Cl)cc1Nc1nccc(-c2cnc3c(c2)C(C)(CO)CN3)n1` (stereo not drawn) [Compound 284], for which the IC50 runs as follows: under setting [2], 7.4 nM; under setting [1], 1.1 nM.

`COc1cc(N2CCC(OC)C2)c(Cl)cc1Nc1nccc(-c2cnc3c(c2)C(C)(CO)CN3)n1` (stereo not drawn) [Compound 285]: the half-inhibitory concentration (IC50) came to 7.8 nM under setting [2] and 1.8 nM under setting [1].

`COc1cc(N2CC(OC)C2)c(Cl)cc1Nc1nccc(-c2cnc3c(c2)C(C)(CO)CN3)n1` (stereo not drawn) [Compound 287]: the IC50 turned out to be 3.9 nM under setting [2] and 1.3 nM under setting [1].

As to `COc1cc(N2CC(N(C)C)C2)c(Cl)cc1Nc1nccc(-c2cnc3c(c2)C(C)(CO)CN3)n1` (stereo not drawn) [Compound 289], the half-maximal inhibitory concentration (IC50) is 3.6 nM under setting [2] and 1.2 nM under setting [1].

As for `COc1cc(C(=O)N2CCC(OC)C2)c(Cl)cc1Nc1nccc(-c2cnc3c(c2)C(C)(CO)CN3)n1` (stereo not drawn) [Compound 290], the IC50 amounted to 3.1 nM under setting [2] and 1.4 nM under setting [1].

For `COc1cc(C(=O)N2CCC(OC)C2)c(Cl)cc1Nc1nccc(-c2cnc3c(c2)C(C)(C)CN3)n1` (stereo not drawn) [Compound 292], the IC50 under setting [2] was 4.3 nM and the IC50 under setting [1] came out at 1.6 nM.

Regarding `COc1cc(N2CCC2)c(Cl)cc1Nc1nccc(-c2cnc3c(c2)C(C)(CO)CN3)n1` (stereo not drawn) [Compound 294], the IC50 reads like this: under setting [2], 12 nM; under setting [1], 2.3 nM.
